Experiments:
Type in all cases: in vivo
[1] = test system: Aspergillus flavus; test: Aspergillus flavus pulmonary infection model in compromised mice, oral treatment; settings: for %SURVIVAL / %ANIMALS NEG: 18 days post infection; for %SURVIVAL: compromised CF-1 mice; for %ANIMALS NEG: negative = <10 colonies
[2] = test system: C. albicans C-65; test: Candida systemic model in normal and compromised CF1 mice infected with C. albicans C-65, oral treatment; settings: for CFUs (GM): geometric mean of the logarithms of CFU in the kidneys
[3] = test system: Aspergillus flavus; test: Aspergillus flavus pulmonary infection model in compromised mice, oral treatment; settings: 18 days post infection; for CFU-GEO MEAN OF SURVIVORS: geometric mean of the logarithm of CFU remaining in the lung
[4] = 33 mg/kg PO once a day for 4 days
[5] = 66 mg/kg PO once a day for 4 days
[6] = 100 mg/kg PO once a day for 4 days

CC[C@H](C)n1ncn(-c2ccc(N3CCN(c4ccc(OC[C@@H]5CO[C@@](Cn6cncn6)(c6ccc(F)cc6F)C5)cc4)CC3)cc2)c1=O [Example 24, (-)-[(5R)-cis]-4-[4-[4-[4-[[5-(2,4-Difluorophenyl)-5-(1H-1,2,4-triazol-1-ylmethyl)tetrahydrofuran-3-yl]methoxy]phenyl]-1-piperazinyl]phenyl]-2,4-dihydro-2-[(1S)-(1-methylpropyl)]-3H-1,2,4-triazol-3-one]
%SURVIVAL [1, 4]: 0% | %ANIMALS NEG [1, 4]: 0% | %SURVIVAL [1, 5]: 50% | %ANIMALS NEG [1, 5]: 0% | %SURVIVAL [1, 6]: 100% | %ANIMALS NEG [1, 6]: 20% | oral activity in the Aspergillus pulmonary mouse model ([1]; PO, result in words (active / inactive)): exhibit oral activity | oral activity against Aspergillus flavus pulmonary infections compared with itraconazole, fluconazole and saperconazole ([1]; in vivo mouse model, PO, result in words): more active orally | % S (Percent Survival) ([2]; 600 Rads Mice (compromised), 10 MPK PO in Beta-CD, 1/day x 4 days, day 4): 30% | CFUs (GM) ([2]; 600 Rads Mice (compromised), 10 MPK PO in Beta-CD, day 4): 7.88 | % S (Percent Survival) ([2]; 600 Rads Mice (compromised), 10 MPK PO in PEG-200, 1/day x 4 days, day 4 post-infection): 0% | CFUs (GM) ([2]; 600 Rads Mice (compromised), 10 MPK PO in PEG-200, day 4): 9.00 | % S (Percent Survival) ([2]; 600 Rads Mice (compromised), 25 MPK PO in PEG-200, 1/day x 4 days, day 4 post-infection): 20% | CFUs (GM) ([2]; 600 Rads Mice (compromised), 25 MPK PO in PEG-200, day 4): 8.27 | % S (Percent Survival) ([2]; 600 Rads Mice (compromised), 50 MPK PO in PEG-200, 1/day x 4 days, day 4 post-infection): 30% | CFUs (GM) ([2]; 600 Rads Mice (compromised), 50 MPK PO in PEG-200, day 4): 7.58 | % S (Percent Survival) ([2]; 600 Rads Mice (compromised), 100 MPK PO in PEG-200, 1/day x 4 days, day 4 post-infection): 80% | CFUs (GM) ([2]; 600 Rads Mice (compromised), 100 MPK PO in PEG-200, day 4): 6.28 | % S (Percent Survival) ([2]; Normal Mice, 1 MPK PO in Beta-CD (hydroxypropyl-beta-cyclodextrin), 1/day x 4 days, day 4): 70% | CFUs (GM) ([2]; Normal Mice, 1 MPK PO in Beta-CD, day 4): 5.97 | % S (Percent Survival) ([2]; Normal Mice, 1 MPK PO in PEG-200, 1/day x 4 days, day 4 post-infection): 30% | CFUs (GM) ([2]; Normal Mice, 1 MPK PO in PEG-200, day 4): 7.73 | % S (Percent Survival) ([2]; Normal Mice, 10 MPK PO in Beta-CD (hydroxypropyl-beta-cyclodextrin), 1/day x 4 days, day 4): 100% | CFUs (GM) ([2]; Normal Mice, 10 MPK PO in Beta-CD, day 4): 4.94 | % S (Percent Survival) ([2]; Normal Mice, 10 MPK PO in PEG-200, 1/day x 4 days, day 4 post-infection): 40% | CFUs (GM) ([2]; Normal Mice, 10 MPK PO in PEG-200, day 4): 7.48 | % S (Percent Survival) ([2]; Normal Mice, 25 MPK PO in PEG-200, 1/day x 4 days, day 4 post-infection): 90% | CFUs (GM) ([2]; Normal Mice, 25 MPK PO in PEG-200, day 4): 4.67 | % S (Percent Survival) ([2]; Normal Mice, 50 MPK PO in PEG-200, 1/day x 4 days, day 4 post-infection): 100% | CFUs (GM) ([2]; Normal Mice, 50 MPK PO in PEG-200, day 4): 4.44 | oral activity in the Candida systemic model compared with itraconazole ([2]; doses of 50 and 25 mpk, each drug dissolved in PEG-200, result in words): more active orally | activity against systemic candidiasis compared with itraconazole and saperconazole ([2]; normal and compromised mice, result in words (text refers to Tables II and V)): more active | %SURVIVAL ([3]; 33 mg/kg PO [3RX/DAY] for 4 days, compromised CF-1 mice): 40% | CFU-GEO MEAN OF SURVIVORS ([3]; 33 mg/kg PO [3RX/DAY] for 4 days): 2.4 | %ANIMALS NEG ([3]; 33 mg/kg PO [3RX/DAY] for 4 days, negative = <10 colonies): 0% | CFU-GEO MEAN OF SURVIVORS [3, 5]: 2.25 | CFU-GEO MEAN OF SURVIVORS [3, 6]: 1.95

Source: EP0610377B1, “TRI-SUBSTITUTED TETRAHYDROFURAN ANTIFUNGALS” (SCHERING CORPORATION, priority 1991, dated 1993)
